Experimental data as given in PubChem BioAssay (NCI).
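Step 1: Grow cells in 96-well plates. Step 2: Expose to compound for 48 hours at 5 concentrations. Step 3: Interpolate endpoints linearly; if unreached, use highest concentration. TGI is the concentration that stops growth completely.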

Key:
Assay in all cases: NCI-60 cell line screen, 48 h
HCT-116 colon = test system: HCT-116 colon
MDA-N = test system: MDA-N
PC-3 prostate = test system: PC-3 prostate
HL-60(TB) leukemia = test system: HL-60(TB) leukemia
MDA-MB-435 = test system: MDA-MB-435
LOX IMVI melanoma = test system: LOX IMVI melanoma
UO-31 renal = test system: UO-31 renal
MCF7 breast = test system: MCF7 breast
T-47D breast = test system: T-47D breast
TK-10 renal = test system: TK-10 renal
SF-295 CNS = test system: SF-295 CNS
UACC-62 melanoma = test system: UACC-62 melanoma
MALME-3M melanoma = test system: MALME-3M melanoma
BT-549 breast = test system: BT-549 breast
KM12 colon = test system: KM12 colon
ACHN renal = test system: ACHN renal
HT29 colon = test system: HT29 colon
SK-OV-3 ovarian = test system: SK-OV-3 ovarian
SNB-19 CNS = test system: SNB-19 CNS
OVCAR-4 ovarian = test system: OVCAR-4 ovarian
SF-268 CNS = test system: SF-268 CNS
RPMI-8226 leukemia = test system: RPMI-8226 leukemia
HOP-92 NSCLC = test system: HOP-92 NSCLC
IGROV1 ovarian = test system: IGROV1 ovarian
SK-MEL-2 melanoma = test system: SK-MEL-2 melanoma
OVCAR-3 ovarian = test system: OVCAR-3 ovarian
SK-MEL-28 melanoma = test system: SK-MEL-28 melanoma
A549 NSCLC = test system: A549 NSCLC
MDA-MB-231 breast = test system: MDA-MB-231 breast
HCT-15 colon = test system: HCT-15 colon
MOLT-4 leukemia = test system: MOLT-4 leukemia
M14 melanoma = test system: M14 melanoma
SW-620 colon = test system: SW-620 colon
OVCAR-8 ovarian = test system: OVCAR-8 ovarian
NCI-H522 lung = test system: NCI-H522 lung
A498 renal = test system: A498 renal
NCI-H23 lung = test system: NCI-H23 lung
U251 CNS = test system: U251 CNS
CAKI-1 renal = test system: CAKI-1 renal
COLO 205 colon = test system: COLO 205 colon
OVCAR-5 ovarian = test system: OVCAR-5 ovarian
DU-145 prostate = test system: DU-145 prostate
EKVX NSCLC = test system: EKVX NSCLC
SK-MEL-5 melanoma = test system: SK-MEL-5 melanoma
SR leukemia = test system: SR leukemia
NCI-H226 lung = test system: NCI-H226 lung
SN12C renal = test system: SN12C renal
UACC-257 melanoma = test system: UACC-257 melanoma
RXF 393 renal = test system: RXF 393 renal
HCC-2998 colon = test system: HCC-2998 colon
NCI/ADR-RES ovarian = test system: NCI/ADR-RES ovarian
786-0 renal = test system: 786-0 renal
K-562 leukemia = test system: K-562 leukemia
HOP-62 NSCLC = test system: HOP-62 NSCLC
NCI-H460 lung = test system: NCI-H460 lung
SNB-75 CNS = test system: SNB-75 CNS
HS 578T breast = test system: HS 578T breast
SF-539 CNS = test system: SF-539 CNS
CCRF-CEM leukemia = test system: CCRF-CEM leukemia

Oc1ccc2c3c1OC1c4[nH]c5c(c4CC4(O)C(C2)N(CC2CC2)CC[C@]314)CC1(O)C2Cc3ccc(O)c4c3[C@@]1(CCN2CC1CC1)C5O4 (some centres not stated)
TGI (HCT-116 colon): 33 µM
TGI (MDA-N): 38.9 µM
TGI (PC-3 prostate): > 100 µM
TGI (HL-60(TB) leukemia): 41.4 µM
TGI (MDA-MB-435): 37.6 µM
TGI (LOX IMVI melanoma): 83.2 µM
TGI (UO-31 renal): > 100 µM
TGI (MCF7 breast): > 100 µM
TGI (T-47D breast): 47.6 µM
TGI (TK-10 renal): 44.6 µM
TGI (SF-295 CNS): 40 µM
TGI (UACC-62 melanoma): 43.7 µM
TGI (MALME-3M melanoma): 31.6 µM
TGI (BT-549 breast): > 100 µM
TGI (KM12 colon): 32.2 µM
TGI (ACHN renal): > 100 µM
TGI (HT29 colon): 38.3 µM
TGI (SK-OV-3 ovarian): > 100 µM
TGI (SNB-19 CNS): 64 µM
TGI (OVCAR-4 ovarian): 90.5 µM
TGI (SF-268 CNS): 49.4 µM
TGI (RPMI-8226 leukemia): 60.8 µM
TGI (HOP-92 NSCLC): 85 µM
TGI (IGROV1 ovarian): > 100 µM
TGI (SK-MEL-2 melanoma): 44.8 µM
TGI (OVCAR-3 ovarian): 35.8 µM
TGI (SK-MEL-28 melanoma): 41.4 µM
TGI (A549 NSCLC): 37.6 µM
TGI (MDA-MB-231 breast): 46.1 µM
TGI (HCT-15 colon): > 100 µM
TGI (MOLT-4 leukemia): 53.9 µM
TGI (M14 melanoma): 32 µM
TGI (SW-620 colon): 53.8 µM
TGI (OVCAR-8 ovarian): > 100 µM
TGI (NCI-H522 lung): 49.3 µM
TGI (A498 renal): 32.4 µM
TGI (NCI-H23 lung): > 100 µM
TGI (U251 CNS): 34.6 µM
TGI (CAKI-1 renal): > 100 µM
TGI (COLO 205 colon): 35.6 µM
TGI (OVCAR-5 ovarian): 74.9 µM
TGI (DU-145 prostate): > 100 µM
TGI (EKVX NSCLC): 99.3 µM
TGI (SK-MEL-5 melanoma): > 100 µM
TGI (SR leukemia): 57.5 µM
TGI (NCI-H226 lung): 88.7 µM
TGI (SN12C renal): > 100 µM
TGI (UACC-257 melanoma): 37.4 µM
TGI (RXF 393 renal): 82.2 µM
TGI (HCC-2998 colon): 36.7 µM
TGI (NCI/ADR-RES ovarian): > 100 µM
TGI (786-0 renal): 46 µM
TGI (K-562 leukemia): 63.9 µM
TGI (HOP-62 NSCLC): > 100 µM

CN(C)N1C(=O)CC2(CCN(CCCC(=O)c3ccc(F)cc3)CC2)C1=O
TGI (HCT-116 colon): > 100 µM
TGI (MDA-N): > 100 µM
TGI (PC-3 prostate): > 100 µM
TGI (HL-60(TB) leukemia): > 100 µM
TGI (MDA-MB-435): > 100 µM
TGI (LOX IMVI melanoma): > 100 µM
TGI (UO-31 renal): > 100 µM
TGI (MCF7 breast): > 100 µM
TGI (T-47D breast): > 100 µM
TGI (NCI-H460 lung): > 100 µM
TGI (TK-10 renal): > 100 µM
TGI (SF-295 CNS): > 100 µM
TGI (UACC-62 melanoma): > 100 µM
TGI (MALME-3M melanoma): > 100 µM
TGI (BT-549 breast): > 100 µM
TGI (KM12 colon): > 100 µM
TGI (ACHN renal): > 100 µM
TGI (HT29 colon): > 100 µM
TGI (SK-OV-3 ovarian): > 100 µM
TGI (SNB-19 CNS): > 100 µM
TGI (SF-268 CNS): > 100 µM
TGI (RPMI-8226 leukemia): > 100 µM
TGI (SNB-75 CNS): > 100 µM
TGI (HS 578T breast): > 100 µM
TGI (IGROV1 ovarian): > 100 µM
TGI (SK-MEL-2 melanoma): > 100 µM
TGI (OVCAR-3 ovarian): > 100 µM
TGI (SK-MEL-28 melanoma): > 100 µM
TGI (A549 NSCLC): > 100 µM
TGI (MDA-MB-231 breast): > 100 µM
TGI (HCT-15 colon): > 100 µM
TGI (MOLT-4 leukemia): > 100 µM
TGI (M14 melanoma): > 100 µM
TGI (SW-620 colon): > 100 µM
TGI (OVCAR-8 ovarian): > 100 µM
TGI (NCI-H522 lung): > 100 µM
TGI (A498 renal): > 100 µM
TGI (NCI-H23 lung): > 100 µM
TGI (U251 CNS): > 100 µM
TGI (CAKI-1 renal): > 100 µM
TGI (COLO 205 colon): > 100 µM
TGI (SF-539 CNS): > 100 µM
TGI (OVCAR-5 ovarian): > 100 µM
TGI (DU-145 prostate): > 100 µM
TGI (SK-MEL-5 melanoma): > 100 µM
TGI (SR leukemia): > 100 µM
TGI (NCI-H226 lung): > 100 µM
TGI (SN12C renal): > 100 µM
TGI (UACC-257 melanoma): > 100 µM
TGI (RXF 393 renal): > 100 µM
TGI (NCI/ADR-RES ovarian): > 100 µM
TGI (786-0 renal): > 100 µM
TGI (K-562 leukemia): > 100 µM
TGI (HOP-62 NSCLC): > 100 µM

Cc1ccc(C(=O)Nc2ccc(CP(=O)(O)O)cc2)cc1NC(=O)Nc1cc(C(=O)Nc2ccc(CP(=O)(O)O)cc2)ccc1C
TGI (HCT-116 colon): > 100 µM
TGI (MDA-N): > 100 µM
TGI (PC-3 prostate): > 100 µM
TGI (HL-60(TB) leukemia): > 100 µM
TGI (MDA-MB-435): > 100 µM
TGI (CCRF-CEM leukemia): > 100 µM
TGI (LOX IMVI melanoma): > 100 µM
TGI (UO-31 renal): > 100 µM
TGI (MCF7 breast): > 100 µM
TGI (T-47D breast): > 100 µM
TGI (NCI-H460 lung): > 100 µM
TGI (TK-10 renal): > 100 µM
TGI (SF-295 CNS): > 100 µM
TGI (UACC-62 melanoma): > 100 µM
TGI (MALME-3M melanoma): > 100 µM
TGI (BT-549 breast): > 100 µM
TGI (KM12 colon): > 100 µM
TGI (HT29 colon): > 100 µM
TGI (SK-OV-3 ovarian): > 100 µM
TGI (OVCAR-4 ovarian): > 100 µM
TGI (SF-268 CNS): > 100 µM
TGI (RPMI-8226 leukemia): > 100 µM
TGI (SNB-75 CNS): > 100 µM
TGI (HS 578T breast): > 100 µM
TGI (IGROV1 ovarian): > 100 µM
TGI (SK-MEL-2 melanoma): > 100 µM
TGI (OVCAR-3 ovarian): > 100 µM
TGI (SK-MEL-28 melanoma): > 100 µM
TGI (A549 NSCLC): > 100 µM
TGI (MDA-MB-231 breast): > 100 µM
TGI (HCT-15 colon): > 100 µM
TGI (MOLT-4 leukemia): > 100 µM
TGI (M14 melanoma): > 100 µM
TGI (SW-620 colon): > 100 µM
TGI (OVCAR-8 ovarian): > 100 µM
TGI (NCI-H522 lung): > 100 µM
TGI (A498 renal): > 100 µM
TGI (NCI-H23 lung): > 100 µM
TGI (U251 CNS): > 100 µM
TGI (CAKI-1 renal): > 100 µM
TGI (COLO 205 colon): > 100 µM
TGI (SF-539 CNS): > 100 µM
TGI (OVCAR-5 ovarian): > 100 µM
TGI (DU-145 prostate): > 100 µM
TGI (EKVX NSCLC): > 100 µM
TGI (SK-MEL-5 melanoma): > 100 µM
TGI (NCI-H226 lung): > 100 µM
TGI (SN12C renal): > 100 µM
TGI (UACC-257 melanoma): > 100 µM
TGI (RXF 393 renal): > 100 µM
TGI (HCC-2998 colon): > 100 µM
TGI (NCI/ADR-RES ovarian): > 100 µM
TGI (786-0 renal): > 100 µM
TGI (HOP-62 NSCLC): > 100 µM
